# Source: patent US20160175318A1, “COMPOSITIONS COMPRISING ANTIBACTERIAL AGENT AND TAZOBACTAM” (WOCKHARDT LIMITED, priority 2013, published 2016)
# Like-named read-outs stand apart in the source and are kept apart here.
# Experiments:
# Assay type in all cases: cell-based
# [1] = tested on: E. coli B123; experiment: MIC by agar dilution (CLSI) against highly resistant ESBL strain; settings: for Activity (MIC, method of Example 1), Table 7: E. coli B-123
# Protocol: (§1) The results on activity of cefepime and other cephalosporin antibacterial agents in combination with tazobactam against highly resistant ESBL strains are given Table 1. In a typical study, overnight grown bacterial cultures were diluted appropriately and inoculated on the agar media containing doubling dilutions of the antibiotic. Observation for growth or no growth was performed after 16-20 h of incubation at 35±2° C. in ambient air. The overall procedure was performed as per Clinical and Laboratory Standards Institute (CLSI) recommendations. This experimental was followed for Examples 2-4 and 6 below (Table 2-4 and 7).
# [2] = tested on: E. coli M50; experiment: as above
# Protocol: as §1
# [3] = tested on: E. cloacae M-20; experiment: as above
# Protocol: as §1
# [4] = tested on: E. coli B-89; experiment: as above
# Protocol: as §1
# [5] = tested on: E. coli 7MP; experiment: as above
# Protocol: as §1
# [6] = tested on: E. coli M-138; experiment: Quantitative drug diffusion assay (disc, zone of inhibition, CLSI); set-up: key to Interpretation of zone as per CLSI recommendations: R: Resistant; I: Intermediate; S: Sensitive (Interpretation as per CLSI recommendations, 2010)
# Source text: (§2) Activity of cefepime in combination with tazobactam and various penicillins in combination with respective ESBL inhibitors was also investigated against highly resistant ESBL strains in quantitative drug diffusion assay performed as per CLSI recommendations (Clinical and Laboratory Standards Institute (CLSI), performance Standards for Antimicrobial Susceptibility Testing, 20th Informational Supplement, M 100-S20, Volume 30, No. 1, 2010).
# (§3) In a typical study, overnight grown bacterial cultures after appropriate dilution were seed inoculated in the molten, cooled agar media and plates poured. Antibiotics containing 6 mm diameter discs were place on the top of the agar surface. Zone of inhibition based observation was performed after 16-18 h of incubation at 35±2° C. in ambient air. The overall procedure was performed as per CLSI recommendations (Table 5 and 6). These assays are routinely used in determining possibility of treating a particular infection using antibiotic and/or their combinations. For example, in case of treating an infection caused by E. coli (M138) using Augmentin® [commercially available combination: Amoxicillin (500 mg)+Clavulanic acid (125 mg)], the zone inhibition values need to be in the sensitive (S) range.
# [7] = tested on: E. coli M50; experiment: as above; set-up: key to Interpretation of zone as per CLSI recommendations: R: Resistant; I: Intermediate; S: Sensitive (Interpretation as per CLSI recommendations, 2010)
# Source text: as §2, §3
# [8] = tested on: E. coli B-89; experiment: as above; set-up: key to Interpretation of zone as per CLSI recommendations: R: Resistant; I: Intermediate; S: Sensitive (Interpretation as per CLSI recommendations, 2010)
# Source text: as §2, §3
# [9] = tested on: E. coli B-123; experiment: as above; set-up: key to Interpretation of zone as per CLSI recommendations: R: Resistant; I: Intermediate; S: Sensitive (Interpretation as per CLSI recommendations, 2010)
# Source text: as §2, §3
# [10] = tested on: E. coli 7MP; experiment: as above; set-up: key to Interpretation of zone as per CLSI recommendations: R: Resistant; I: Intermediate; S: Sensitive (Interpretation as per CLSI recommendations, 2010)
# Source text: as §2, §3
# [11] = tested on: E. coli S-112; experiment: as above; set-up: key to Interpretation of zone as per CLSI recommendations: R: Resistant; I: Intermediate; S: Sensitive (Interpretation as per CLSI recommendations, 2010)
# Source text: as §2, §3
# [12] = Escherichia coli, B123, E. coli B123, with Tazobactam 4 mcg, read-out: MIC
# [13] = Escherichia coli, B123, E. coli B123, with Tazobactam 8 mcg, read-out: MIC
# [14] = Escherichia coli, M50, 20 h, Tazobactam 0 mcg (antibiotic alone)
# [15] = E. cloacae M-20, with Tazobactam 4 mcg
# [16] = E. cloacae M-20, with Tazobactam 8 mcg
# [17] = Enterobacter cloacae, M20, 20 h
# [18] = E. coli B-89, with Tazobactam 4 mcg
# [19] = E. coli B-89, with Tazobactam 8 mcg
# [20] = E. coli 7MP, with Tazobactam 4 mcg
# [21] = E. coli 7MP, with Tazobactam 8 mcg
# [22] = Escherichia coli, B123, E. coli B123, Tazobactam 0 mcg (antibiotic alone), read-out: MIC
# [23] = Escherichia coli, 20 h, Tazobactam 0 mcg (antibiotic alone), read-out: MIC
# [24] = Enterobacter cloacae, M20, 20 h, E. cloacae M-20, Tazobactam 0 mcg (antibiotic alone), read-out: MIC
# [25] = Escherichia coli, B89, 20 h, E. coli B-89, Tazobactam 0 mcg (antibiotic alone), read-out: MIC
# [26] = Escherichia coli, 7MP, 20 h, E. coli 7MP, Tazobactam 0 mcg (antibiotic alone), read-out: MIC
# [27] = ESBL inhibitor 0 mcg (antibiotic alone)
# [28] = Table 6, with Tazobactam 10 mcg
smiles,measurement,setting,value
CC(C)(O/N=C(\C(=O)N[C@@H]1C(=O)N2C(C(=O)[O-])=C(C[n+]3ccccc3)CS[C@H]12)c1csc(N)n1)C(=O)O [Ceftazidime],MIC,"[1]; Escherichia coli, B123",> 128 µg/mL
same,MIC,[1]; [12],> 64 µg/mL
same,MIC,[1]; [13],> 64 µg/mL
same,MIC,[2]; [14],> 128 µg/mL
same,MIC,[2]; with Tazobactam 4 mcg,>64 µg/mL
same,MIC,[2]; with Tazobactam 8 mcg,>64 µg/mL
same,MIC,[3]; [15],>64 µg/mL
same,MIC,[3]; [16],64 µg/mL
same,MIC,[3]; [17],> 128 µg/mL
same,MIC,[4]; [18],>64 µg/mL
same,MIC,[4]; [19],64 µg/mL
same,MIC,"[4]; Escherichia coli, B89, 20 h",> 128 µg/mL
same,MIC,[5]; [20],>64 µg/mL
same,MIC,[5]; [21],>64 µg/mL
same,MIC,"[5]; Escherichia coli, 7MP, 20 h",> 128 µg/mL
CO/N=C(\C(=O)N[C@@H]1C(=O)N2C(C(=O)[O-])=C(C[n+]3cccc4c3CCC4)CS[C@H]12)c1csc(N)n1 [Cefpirome],"Activity (MIC, method of Example 1), Table 7",[1]; antibiotic alone,> 64 µg/mL
same,"Activity (MIC, method of Example 1), Table 7",[1]; with Clavulanic acid 4 mcg,16 µg/mL
same,"Activity (MIC, method of Example 1), Table 7",[1]; with Clavulanic acid 8 mcg,8 µg/mL
same,"Activity (MIC, method of Example 1), Table 7",[1]; with Sulbactam 4 mcg,8 µg/mL
same,"Activity (MIC, method of Example 1), Table 7",[1]; with Sulbactam 8 mcg,16 µg/mL
same,"Activity (MIC, method of Example 1), Table 7",[1]; with Tazobactam 4 mcg,4 µg/mL
same,"Activity (MIC, method of Example 1), Table 7","[1]; with Tazobactam, (4 mcg)",2 µg/mL
same,MIC,[1]; [22],> 64 µg/mL
same,MIC,[1]; [12],4 µg/mL
same,MIC,[1]; [13],2 µg/mL
same,MIC,[2]; [23],> 64 µg/mL
same,MIC,[2]; with Tazobactam 4 mcg,2 µg/mL
same,MIC,[2]; with Tazobactam 8 mcg,2 µg/mL
same,"Activity (MIC, method of Example 1), Table 7","[3]; E. cloacae M-20, antibiotic alone",> 64 µg/mL
same,"Activity (MIC, method of Example 1), Table 7","[3]; E. cloacae M-20, with Clavulanic acid 4 mcg",16 µg/mL
same,"Activity (MIC, method of Example 1), Table 7","[3]; E. cloacae M-20, with Clavulanic acid 8 mcg",8 µg/mL
same,"Activity (MIC, method of Example 1), Table 7","[3]; E. cloacae M-20, with Sulbactam 4 mcg",32 µg/mL
same,"Activity (MIC, method of Example 1), Table 7","[3]; E. cloacae M-20, with Sulbactam 8 mcg",16 µg/mL
same,"Activity (MIC, method of Example 1), Table 7",[3]; [15],8 µg/mL
same,MIC,[3]; [15],8 µg/mL
same,MIC,[3]; [16],4 µg/mL
same,"Activity (MIC, method of Example 1), Table 7","[3]; E. cloacae M-20, with Tazobactam, (4 mcg)",4 µg/mL
same,MIC,[3]; [24],> 64 µg/mL
same,MIC,[4]; [18],4 µg/mL
same,MIC,[4]; [19],2 µg/mL
same,MIC,[4]; [25],> 64 µg/mL
same,"Activity (MIC, method of Example 1), Table 7","[5]; E. coli 7MP, antibiotic alone",> 64 µg/mL
same,"Activity (MIC, method of Example 1), Table 7","[5]; E. coli 7MP, with Clavulanic acid 4 mcg",16 µg/mL
same,"Activity (MIC, method of Example 1), Table 7","[5]; E. coli 7MP, with Clavulanic acid 8 mcg",8 µg/mL
same,"Activity (MIC, method of Example 1), Table 7","[5]; E. coli 7MP, with Sulbactam 4 mcg",16 µg/mL
same,"Activity (MIC, method of Example 1), Table 7","[5]; E. coli 7MP, with Sulbactam 8 mcg",16 µg/mL
same,"Activity (MIC, method of Example 1), Table 7",[5]; [20],8 µg/mL
same,MIC,[5]; [20],8 µg/mL
same,MIC,[5]; [21],4 µg/mL
same,"Activity (MIC, method of Example 1), Table 7","[5]; E. coli 7MP, with Tazobactam, (4 mcg)",4 µg/mL
same,MIC,[5]; [26],> 64 µg/mL
same,Zone of Inhibition,[6]; [27],Nil
same,Interpretation of zone as per CLSI recommendations,"[6]; Table 6, ESBL inhibitor 0 mcg",(R)
same,Interpretation of zone as per CLSI recommendations,[6]; [28],(S)
same,Zone of Inhibition,[6]; with Tazobactam 10 mcg,21 mm
same,Zone of Inhibition,[7]; [27],Nil
same,Interpretation of zone as per CLSI recommendations,"[7]; Table 6, ESBL inhibitor 0 mcg",(R)
same,Interpretation of zone as per CLSI recommendations,[7]; [28],(S)
same,Zone of Inhibition,[7]; with Tazobactam 10 mcg,22 mm
same,Zone of Inhibition,[8]; [27],Nil
same,Interpretation of zone as per CLSI recommendations,"[8]; Table 6, ESBL inhibitor 0 mcg",(R)
same,Interpretation of zone as per CLSI recommendations,[8]; [28],(S)
same,Zone of Inhibition,[8]; with Tazobactam 10 mcg,17.5 mm
same,Zone of Inhibition,[9]; [27],8 mm
same,Interpretation of zone as per CLSI recommendations,"[9]; Table 6, ESBL inhibitor 0 mcg",(R)
same,Interpretation of zone as per CLSI recommendations,[9]; [28],(S)
same,Zone of Inhibition,[9]; with Tazobactam 10 mcg,20 mm
same,Zone of Inhibition,[10]; [27],11 mm
same,Interpretation of zone as per CLSI recommendations,"[10]; Table 6, ESBL inhibitor 0 mcg",(R)
same,Interpretation of zone as per CLSI recommendations,[10]; [28],(S)
same,Zone of Inhibition,[10]; with Tazobactam 10 mcg,18.5 mm
same,Zone of Inhibition,[11]; [27],15 mm
same,Interpretation of zone as per CLSI recommendations,"[11]; Table 6, ESBL inhibitor 0 mcg",(I)
same,Interpretation of zone as per CLSI recommendations,[11]; [28],(S)
same,Zone of Inhibition,[11]; with Tazobactam 10 mcg,20 mm
CO/N=C(\C(=O)N[C@@H]1C(=O)N2C(C(=O)O)=C(CSc3nc(=O)c(=O)[nH]n3C)CS[C@H]12)c1csc(N)n1 [Ceftriaxone],MIC,"[1]; E. coli B123, Tazobactam 0 mcg (antibiotic alone)",>128 µg/mL
same,MIC,"[1]; E. coli B123, with Tazobactam 4 mcg",>64 µg/mL
same,MIC,"[1]; E. coli B123, with Tazobactam 8 mcg",>64 µg/mL
same,MIC,"[1]; Escherichia coli, B123",> 128 µg/mL
same,MIC,[1]; [12],> 64 µg/mL
same,MIC,[1]; [13],> 64 µg/mL
same,MIC,[2]; [14],128 µg/mL
same,MIC,[2]; with Tazobactam 8 mcg,64 µg/mL
same,MIC,[3]; [15],>64 µg/mL
same,MIC,[3]; [16],>64 µg/mL
same,MIC,[3]; [17],> 128 µg/mL
same,MIC,"[4]; E. coli B-89, Tazobactam 0 mcg (antibiotic alone)",>128 µg/mL
same,MIC,[4]; [18],>64 µg/mL
same,MIC,[4]; [19],>64 µg/mL
same,MIC,"[4]; Escherichia coli, B89, 20 h",> 128 µg/mL
same,MIC,"[5]; E. coli 7MP, Tazobactam 0 mcg (antibiotic alone)",>128 µg/mL
same,MIC,[5]; [20],>64 µg/mL
same,MIC,[5]; [21],>64 µg/mL
same,MIC,"[5]; Escherichia coli, 7MP, 20 h",> 128 µg/mL
COCC1=C(C(=O)O)N2C(=O)[C@@H](NC(=O)/C(=N\OC)c3csc(N)n3)[C@H]2SC1 [Cefpodoxime],MIC,[1]; [22],> 128 µg/mL
same,MIC,[1]; [12],> 64 µg/mL
same,MIC,[1]; [13],> 64 µg/mL
same,MIC,[2]; [23],> 128 µg/mL
same,MIC,[2]; with Tazobactam 4 mcg,>64 µg/mL
same,MIC,[2]; with Tazobactam 8 mcg,>64 µg/mL
same,MIC,[3]; [15],>64 µg/mL
same,MIC,[3]; [16],>64 µg/mL
same,MIC,[3]; [24],> 128 µg/mL
same,MIC,[4]; [18],>64 µg/mL
same,MIC,[4]; [19],>64 µg/mL
same,MIC,[4]; [25],> 128 µg/mL
same,MIC,[5]; [20],>64 µg/mL
same,MIC,[5]; [21],>64 µg/mL
same,MIC,[5]; [26],> 128 µg/mL
